Laboratory results from patent US7579365B2 (ZIOPHRAM Oncology, Inc., priority 1998, dated 2009).
Converted amounts (≈) assume the structure as drawn. “Also recorded” adds a separate entry of the source. Read-outs that look alike come from different tables or passages of the source.

Assays:
[1] = test system: KB cell line; assay: XTT proliferation test/cytotoxicity test, KB cell line; format: cell-based; conditions: KB tumor cells; for EC50: Homo sapiens, KB, read-out: XTT EC50 KB
Protocol: (§1) In this test system, the effect of substances on the proliferation behavior of tumor cell lines is investigated. In the course of this, the cytotoxic potential of these substances is determined. The test method is described in Scudiero et al. 1988, Cancer Res. 48, 4827.
(§2) The following tumor cell lines were employed in the investigations:
(§3) The KB cell line an epidermal carcinoma of the oral cavity,
(§4) the L1210 cell line a lymphatic leukemia of the mouse, the LNCAP cell line a prostate carcinoma and the SK-OV-3 cell line an ovarian carcinoma.

[2] = test system: L1210 cell line; assay: XTT proliferation test/cytotoxicity test, L1210 cell line; format: cell-based, mouse; conditions: for XTT EC50 L1210: L1210 tumor cells; for EC50: Mus musculus, L1210, L1210 tumor cells, read-out: XTT EC50 L1210
Protocol: as §1, §2, §3, §4

[3] = test system: LNCAP cell line; assay: XTT proliferation test/cytotoxicity test, LNCAP cell line; format: cell-based; conditions: LNCaP tumor cells; for EC50: Homo sapiens, read-out: XTT EC50 LNCaP
Protocol: as §1, §2, §3, §4

[4] = test system: SK-OV-3 cell line; assay: XTT proliferation test/cytotoxicity test, SK-OV-3 cell line; format: cell-based; conditions: for EC50: Homo sapiens, SK-OV-3, SK-OV-3 tumor cells, read-out: XTT EC50 SK-OV-3
Protocol: as §1, §2, §3, §4

[5] = test system: KB; assay: Hollow fiber assay on the nude mouse, KB; format: in vivo
Description: (§5) In the hollow fiber assay, both compounds were almost equally strongly active, while on L 1210 D-24851 was markedly more strongly active after oral and intraperitoneal administration than D-24241.

[6] = test system: L1210; assay: Hollow fiber assay on the nude mouse, L1210; format: in vivo
Description: as §5

[7] = test system: MCF-7; assay: Hollow fiber assay on the nude mouse, MCF-7; format: in vivo
Description: as §5

[8] = test system: L1210; assay: L1210 leukemia model in vivo (% ILS, survival time); design: species or system mouse; conditions: for Antitumor action on L 1210 (mouse): oral and intraperitoneal administration
Description: as §5

[9] = test system: KB; assay: KB test on the nude mouse (% WHI); format: in vivo; conditions: for % WHI: KB
[10] = in vivo; for Tox. i.p.: ip
[11] = in vivo
[12] = test system: SK-OV-3; assay: In vivo % WHI printed in the SK-OV-3 column of Table 3
[13] = test system: Dunning tumor; assay: Dunning tumor in the rat; format: in vivo; conditions: repeated oral administration, 7×100 mg/kg and 7×147 mg/kg p.o.
[14] = test system: DNA; assay: DNA fragmentation; conditions: after administration
[15] = Hematopoiesis test; format: in vivo; conditions: intraperitoneal administration; listed as D-24851
[16] = test system: L1210; assay: L1210 leukemia model in vivo (% ILS, survival time); conditions: Mus musculus, L1210, iv

SMILES: O=C(Nc1ccncc1)C(=O)c1cn(Cc2ccc(F)cc2)c2ccccc12 [Example 1, N-(Pyridin-4-yl)-[1-(4-fluorobenzyl)indol-3-yl]glyoxylamide]
- EC50 [1]: 0.02 µg/mL (≈ 0.0536 µM)
- XTT EC50 KB ([1]; listed as D-24241): KB ≈ 0.02 μg/ml
- XTT EC50 L1210 ([2]; listed as 1 (D 24241)): 0.170 µg/mL
- XTT EC50 L1210 ([2]; listed as D 24241): ≈0.17 μg/ml
- XTT EC50 L1210 ([2]; listed as D-24241): L1210 ≈ 0.07 μg/ml
- EC50 [3]: > 31.6 µg/mL
- XTT EC50 LNCaP ([3]; listed as D 24241): >31.6 µg/mL
- XTT EC50 LNCaP ([3]; listed as D-24241): LNCAP > 31.6 μg/ml
- EC50 [4]: 0.17 µg/mL (≈ 0.455 µM)
- XTT EC50 SK-OV-3 ([4]; SK-OV-3 tumor cells, listed as D-24241): SKOV3 ≈ 0.17 μg/ml
- Hollow fiber intraperitoneal % INH ([5]; 4 × 15.8 mg/kg ip): 46%
- Hollow fiber subcutaneous % INH ([5]; 4 × 15.8 mg/kg ip): 81%
- Hollow fiber intraperitoneal % INH ([6]; 4 × 15.8 mg/kg ip): 43%
- Hollow fiber subcutaneous % INH ([6]; 4 × 15.8 mg/kg ip): 68%
- Hollow fiber intraperitoneal % INH ([7]; 4 × 15.8 mg/kg ip): no action
- Hollow fiber subcutaneous % INH ([7]; 4 × 15.8 mg/kg ip): 33%
- % ILS L1210 ([8]; 19 × 50 mg/kg per os, listed as D-24241, 50 mg/kg): 50% ILS
- ILS at 464 mg/kg ([8]; Mus musculus, L1210, po, 1 × 464 mg/kg per os): 44%
- ILS at 50 mg/kg ([8]; Mus musculus, L1210, po, 19 × 50 mg/kg per os): 50%
- Antitumor action on L 1210 (mouse) [8]: strong dose-dependent antitumor action
- % WHI ([9]; 2 × 46.4 mg/kg ip): 22%
- % WHI ([9]; 2 × 215 mg/kg po): 47%
- Antitumor action in the KB test on the nude mouse [9]: antitumor action
- Tox. i.p. [10]: ≈158 i.p. mg/kg
- LD50 ([11]; LD50 1 × per os): > 1000 mg/kg
- LD50 ([11]; ip, LD50 1 × ip): ~158 mg/kg

SMILES: O=C(Nc1ccncc1)C(=O)c1cn(Cc2ccc(Cl)cc2)c2ccccc12 [Example 13, N-(Pyridin-4-yl)-[1-(4-chlorobenzyl)indol-3-yl]glyoxylamide]
- EC50 [1]: ~0.017 µg/mL (≈ 0.0436 µM)
- EC50 [2]: ~0.017 µg/mL (≈ 0.0436 µM)
- EC50 ([3]; LNCaP): ~0.03 µg/mL (≈ 0.077 µM)
- EC50 [4]: ~0.03 µg/mL (≈ 0.077 µM)
- Hollow fiber subcutaneous % INH ([5]; 4 × 46 mg/kg ip): 44%
- Hollow fiber intraperitoneal % INH ([5]; 4 × 147 mg/kg ip): 12%
- Hollow fiber subcutaneous % INH ([5]; 4 × 147 mg/kg ip): 35%
- Hollow fiber intraperitoneal % INH ([6]; 4 × 46 mg/kg ip): 56%
- Hollow fiber subcutaneous % INH ([6]; 4 × 46 mg/kg ip): no action
- Hollow fiber intraperitoneal % INH ([6]; 4 × 147 mg/kg ip): 60%
- Hollow fiber subcutaneous % INH ([6]; 4 × 147 mg/kg ip): 67%
- Hollow fiber intraperitoneal % INH ([7]; 4 × 46 mg/kg ip): 38%
- Hollow fiber subcutaneous % INH ([7]; 4 × 46 mg/kg ip): 47%
- Hollow fiber intraperitoneal % INH ([7]; 4 × 147 mg/kg ip): 68%
- Hollow fiber subcutaneous % INH ([7]; 4 × 147 mg/kg ip): 68%
- ILS at 464 mg/kg ([8]; Mus musculus, L1210, ip, 1 × 464 mg/kg ip): 18%
- ILS at 681 mg/kg ([8]; Mus musculus, L1210, ip, 1 × 681 mg/kg ip): 0%
- ILS at 147 mg/kg ([8]; Mus musculus, L1210, ip, 4 × 147 mg/kg ip): 94%
- ILS at 215 mg/kg ([8]; Mus musculus, L1210, ip, 4 × 215 mg/kg ip): 13%
- ILS at 100 mg/kg ([8]; Mus musculus, L1210, ip, 7 × 100 mg/kg ip): 35%
- ILS at 147 mg/kg ([8]; Mus musculus, L1210, ip, 7 × 147 mg/kg ip): 59%
- ILS at 681 mg/kg ([8]; Mus musculus, L1210, po, 1 × 681 mg/kg po): 22%
- ILS at 215 mg/kg ([8]; Mus musculus, L1210, po, 4 × 215 mg/kg po): 31%
- ILS at 100 mg/kg ([8]; Mus musculus, L1210, po, 7 × 100 mg/kg po): 63%
- ILS at 147 mg/kg ([8]; Mus musculus, L1210, po, 7 × 147 mg/kg po): 75%
- Prolongation of the survival time, L1210 ([8]; intraperitoneal or oral administration, 100 and 147 mg/kg multiple dose): distinct dose-dependent prolongation of the survival time
- Antitumor action on L 1210 (mouse) [8]: strong dose-dependent antitumor action
- Antitumor action in the KB test on the nude mouse [9]: antitumor action
- % WHI ([12]; 2 × 215 mg/kg po): 18%
- % WHI ([12]; 7 × 46 mg/kg ip): 33%
- Tumor growth in the Dunning tumor ([13]; listed as D24851): stoppage of tumor growth and in some animals even tumor regression
- Tumor growth in the Dunning tumor ([13]; listed as D-24851): Stoppage of tumor growth, in some animals even tumor regression
- DNA fragmentation [14]: no DNA fragmentation
- Blood parameters in the hematopoiesis test [15]: none of the blood parameters investigated were modified; also recorded: none of the blood parameters investigated were altered
- LD50 1 × per os [10]: >1000 mg/kg
- Tox. i.p. [10]: ≈1000 i.p. mg/kg
- LD50 ([11]; LD50 1 × per os): 1000 mg/kg
- LD50 ([11]; ip, LD50 1 × ip): > 1000 mg/kg

SMILES: CC(=O)O[C@H]1C(=O)[C@@]2(C)[C@H]([C@H](OC(=O)c3ccccc3)[C@]3(O)C[C@H](OC(=O)[C@H](O)[C@@H](NC(=O)c4ccccc4)c4ccccc4)C(C)=C1C3(C)C)[C@]1(OC(C)=O)CO[C@@H]1C[C@@H]2O [Taxol, reference compound]
- EC50 [1]: < 0.003 µg/mL
- EC50 [2]: < 0.003 µg/mL
- EC50 ([3]; LNCaP): < 0.003 µg/mL
- EC50 [4]: < 0.003 µg/mL
- Tox. i.p. [10]: ≈158 i.p. mg/kg
- ILS at 14.7 mg/kg ([16]; 1 × 14.7 mg/kg i.v.): 22%
- ILS at 46.4 mg/kg ([16]; 1 × 46.4 mg/kg i.v.): 61%
